# Test results reported in US9517202B2, “Phospholipid depot” (LATITUDE PHARMACEUTICALS INC., priority 2009, dated 2016).
# Assay: Injectability test: force to extrude from 1 cc syringe through 25 G ½ inch needle at 2 cc/min
# Assay type: physicochemical
# Conditions: 25 G ½ inch long needle
# Text: A major disadvantage of the polymer depots is that they require large diameter needles for injection or implantation due to the physical size of the microcapsules/microspheres and/or the high viscosity of the polymer gel. For example, 14- or 16-gauge (G) needles are required for implantation of Zoladex™ and 18 G or 20 G needles for injection of Eligard™. However, in common medical practice, needles of size greater than 21 G are generally not used for injection because they cause significant pain and psychological trauma for patients. […] The injectability or ease with which the end user can self-inject through such a system will be key to such a drug's user compliance and therapeutic efficacy. For discussion purposes herein, the injectability of a syringe-administered depot is quantitatively defined as meeting the “Acceptable Injectability Criterion” if it requires an applied force of no more than 10 pounds to be extruded from a 1 cc syringe through a 25 G ½ inch long needle at rate of 2 cc/min.
# The phrase “Acceptable Injectability Criterion” as used herein includes quantitatively defining a formulation that requires an applied force of no more than 10 pounds to extrude the formulation from a 1 cc syringe through a 25 G ½ inch long needle at rate of 2 cc/min. […]
# F-43 was a translucent one-phase gel. The injectability of F-43 was determined against the Acceptable Injectability Criterion. […]
compound,measurement,value
OCC(O)CO [glycerin],maximum injection force,approximately 8 pounds
